The values below come from ChEMBL document CHEMBL1201862, “PubChem BioAssay data set” (2004).

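48-hour exposure; five concentrations; linearly interpolated endpoints. GI50: concentration for 50% inhibition of growth.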 Active and inactive are the calls of the source. Cut-off read from the data, not from the text of the source: active = GI50 up to about 1.1 µM and inactive = higher.

Test systems include 786-0; A549; HCT-15; HL-60; K562; M14; MCF7; MDA-MB-231; MDA-MB-435; NCI-H226; RPMI-8226; SF-268; SF-539; SK-MEL-2; SK-OV-3; SNB-19; SW-620; U-251; EKVX.
Holding throughout (test): NCI tumour cell line growth inhibition, 48 h

Regarding `CC1(C)C2CCC(=O)C1CC2` (stereo unspecified), the GI50 in the experiment on 786-0 was > 100 µM (inactive); in the experiment with A549, > 100 µM (inactive); in the experiment with HCT-15 it was more than 100 µM; in the experiment on HL-60, > 100 µM (inactive); in the experiment on K562 it was 58.2 µM (inactive); with M14, > 100 µM (inactive). Besides, the GI50 in the experiment with MCF7, with MDA-MB-231, in the experiment on MDA-MB-435, in the experiment with NCI-H226, in the experiment on RPMI-8226 and in the experiment on SF-268 was > 100 µM (inactive) in each case. In addition, the GI50 in the experiment with SF-539, in the experiment on SK-MEL-2, with SK-OV-3, with SNB-19, in the experiment on SW-620 and with U-251 was > 100 µM (inactive) throughout.

With `O=C1OC(CC(=O)c2ccc(Cl)cc2)C(Cl)=C1Cl` (stereo unspecified), the GI50 with 786-0 was > 100 µM (inactive); in the experiment with A549, > 100 µM (inactive); in the experiment with EKVX it was > 100 µM (inactive); in the experiment with HCT-15 it was more than 100 µM; with HL-60 it was 26 µM (inactive); with K562, 54.6 µM (inactive). In addition, the GI50 is > 100 µM (inactive) in the experiment with M14; > 100 µM (inactive) in the experiment with NCI-H226; 46.6 µM (inactive) in the experiment on RPMI-8226; > 100 µM (inactive) in the experiment on SF-268; > 100 µM (inactive) with SF-539; > 100 µM (inactive) in the experiment with SK-MEL-2. The GI50 with SK-OV-3, in the experiment with SNB-19, in the experiment on SW-620 and in the experiment on U-251 was > 100 µM (inactive) throughout.

Regarding `CCN(CC)c1ccc2cc3ccc(N(CC)CC)cc3[o+]c2c1`, the GI50 with 786-0 was 2.97 µM (inactive); with A549 it was 3.14 µM (inactive); in the experiment on EKVX, 5.5 µM (inactive); with HCT-15, 2.07 µM; with HL-60, 0.0773 µM (active); in the experiment on K562 it was 2.82 µM (inactive). Besides, the GI50 was 1.95 µM (inactive) in the experiment with M14; 5.62 µM (inactive) in the experiment with NCI-H226; 0.305 µM (active) in the experiment on RPMI-8226; 1.29 µM (inactive) with SF-268; 2.02 µM (inactive) in the experiment with SF-539; 1.34 µM (inactive) in the experiment on SK-MEL-2. Also, the GI50 was 6.52 µM (inactive) in the experiment on SK-OV-3, 7.8 µM (inactive) in the experiment on SNB-19, 0.237 µM (active) in the experiment with SW-620 and 0.624 µM (active) in the experiment with U-251.

For `COc1ccccc1/C=C1\C(=O)N(C(=O)Cc2ccccc2)N=C1C`, the GI50 in the experiment on 786-0 was > 100 µM (inactive); in the experiment with A549 it was > 100 µM (inactive); in the experiment with EKVX, > 100 µM (inactive); in the experiment with HCT-15 it was more than 100 µM; with HL-60, > 100 µM (inactive); with K562, > 100 µM (inactive). For the same molecule, the GI50 in the experiment with M14, with NCI-H226, with RPMI-8226, with SF-268, with SF-539 and in the experiment on SK-MEL-2 was > 100 µM (inactive) in each case. Moreover, the GI50 with SNB-19, in the experiment with SW-620 and with U-251 was > 100 µM (inactive) each time.

As for `COc1nc(=O)n(COC(CO)CN2C(=O)c3ccccc3C2=O)cc1Cc1cccc(OCc2ccccc2)c1` (stereo unspecified), the GI50 was > 10 µM (inactive) with 786-0; 23.5 µM (inactive) in the experiment on A549; 33.8 µM (inactive) in the experiment on EKVX; 28.2 µM in the experiment on HCT-15; 21.1 µM (inactive) in the experiment with HL-60; 24.9 µM (inactive) in the experiment on K562. The GI50 with M14 was 20.4 µM (inactive); in the experiment with NCI-H226 it was 17.4 µM (inactive); with RPMI-8226 it was 18.6 µM (inactive); with SF-539, 16.6 µM (inactive); in the experiment on SK-MEL-2, 15.4 µM (inactive); in the experiment on SK-OV-3, 26.5 µM (inactive). Moreover, the figures for the GI50 with SNB-19, in the experiment on SW-620 and with U-251 were 29.6 µM (inactive), 42.7 µM (inactive) and 21.9 µM (inactive), respectively.

Regarding `O=C(Cc1ccccc1)NN1C(=O)C(Cl)C1c1ccc([N+](=O)[O-])cc1` (stereo unspecified), the GI50 with 786-0 was > 100 µM (inactive); with A549, > 100 µM (inactive); in the experiment on EKVX it was > 100 µM (inactive); in the experiment with HCT-15 it was 45.5 µM; in the experiment with HL-60, 70.5 µM (inactive); in the experiment with K562, 65.6 µM (inactive). The GI50 is > 100 µM (inactive) in the experiment with M14; > 100 µM (inactive) with NCI-H226; 23.5 µM (inactive) in the experiment with RPMI-8226; > 100 µM (inactive) in the experiment on SF-268; > 100 µM (inactive) in the experiment on SK-MEL-2; > 100 µM (inactive) in the experiment with SK-OV-3. The GI50 in the experiment with SNB-19, in the experiment on SW-620 and in the experiment on U-251 was > 100 µM (inactive) in each case.

For the molecule `Nc1nnc(N)n1N`, the GI50 is > 100 µM (inactive) in the experiment on 786-0; > 100 µM (inactive) in the experiment with A549; > 100 µM (inactive) with EKVX; more than 100 µM in the experiment on HCT-15; > 100 µM (inactive) in the experiment on HL-60; > 100 µM (inactive) in the experiment on K562. The GI50 in the experiment on M14, in the experiment with NCI-H226, with RPMI-8226, with SF-268, in the experiment on SF-539 and in the experiment with SK-MEL-2 was > 100 µM (inactive) throughout. In addition, the GI50 in the experiment on SK-OV-3, in the experiment with SNB-19, in the experiment on SW-620 and in the experiment with U-251 was > 100 µM (inactive) each time.

Turning to `CN1c2ccccc2N(C)C2C1N(C)c1ccccc1N2C` (stereo unspecified), the GI50 is 32.9 µM (inactive) in the experiment with 786-0; 26.8 µM (inactive) in the experiment with A549; 61.5 µM (inactive) in the experiment on EKVX; 4.25 µM in the experiment on HCT-15; 2.29 µM (inactive) in the experiment on HL-60; 3.42 µM (inactive) in the experiment on K562. Besides, the GI50 in the experiment on M14 was 18.2 µM (inactive); in the experiment with NCI-H226, 23.2 µM (inactive); with RPMI-8226, 5.11 µM (inactive); with SF-268, 12.3 µM (inactive); in the experiment with SF-539, 15.3 µM (inactive); with SK-MEL-2 it was 9.59 µM (inactive). The GI50 with SNB-19 was 18.8 µM (inactive); in the experiment with SW-620, 7.85 µM (inactive); with U-251 it was 26.1 µM (inactive).

With `Cc1c(C(=O)CC(=O)C(=O)Nc2ccccc2C(F)(F)F)[n+]([O-])c2ccccc2[n+]1[O-]`, the GI50 in the experiment with 786-0 is 33.6 µM (inactive); with A549 it was 24.2 µM (inactive); in the experiment with EKVX it was 19.5 µM (inactive); with HCT-15, 16.8 µM; in the experiment with HL-60, 28.2 µM (inactive); with K562, 22 µM (inactive). The GI50 was 15.2 µM (inactive) in the experiment with M14; > 100 µM (inactive) in the experiment on NCI-H226; 4.69 µM (inactive) in the experiment with RPMI-8226; 21.2 µM (inactive) with SF-268; 23.2 µM (inactive) with SF-539; 19.8 µM (inactive) with SK-MEL-2. The GI50 is 25.5 µM (inactive) in the experiment on SK-OV-3, 32.1 µM (inactive) in the experiment with SNB-19, 16.2 µM (inactive) with SW-620 and 19.6 µM (inactive) in the experiment with U-251.

As to `COC(=O)c1ccc(CS(=O)(=O)c2ccccc2)cc1`, the GI50 in the experiment with 786-0 is > 100 µM (inactive); in the experiment on A549 it was 67.8 µM (inactive); with EKVX, > 100 µM (inactive); in the experiment with HCT-15 it was 39.5 µM; with HL-60 it was 76.6 µM (inactive); in the experiment with K562 it was > 100 µM (inactive). For the same molecule, the GI50 with M14 is 49.8 µM (inactive); with NCI-H226, > 100 µM (inactive); in the experiment with RPMI-8226 it was > 100 µM (inactive); in the experiment on SF-268, > 100 µM (inactive); in the experiment on SF-539, > 100 µM (inactive); with SK-MEL-2, 38.5 µM (inactive). The GI50 in the experiment with SK-OV-3 was > 100 µM (inactive); in the experiment with SNB-19, > 100 µM (inactive); in the experiment on SW-620, 45.1 µM (inactive); with U-251, > 100 µM (inactive).

For the molecule `N#Cc1cccc(N2C(=O)c3ccc(C(=O)c4ccc5c(c4)C(=O)N(c4cccc(C#N)c4)C5=O)cc3C2=O)c1`, the GI50 in the experiment with 786-0 is 64.4 µM (inactive); in the experiment on A549, > 100 µM (inactive); with EKVX, > 100 µM (inactive); with HCT-15 it was more than 100 µM; with HL-60 it was > 100 µM (inactive); with K562 it was > 100 µM (inactive). For the same molecule, the GI50 in the experiment with M14, with NCI-H226, in the experiment on RPMI-8226, in the experiment with SF-268, in the experiment on SF-539 and in the experiment with SK-MEL-2 was > 100 µM (inactive) each time. In addition, the GI50 with SK-OV-3 is > 100 µM (inactive); in the experiment on SNB-19, > 100 µM (inactive); with SW-620, > 100 µM (inactive); with U-251, 35.8 µM (inactive).

For `CN1N=C2c3ccccc3CC[C@H]2C1c1ccccc1` (stereo partly specified), the GI50 was 63.5 µM (inactive) in the experiment with 786-0; 35.6 µM (inactive) with A549; 49.3 µM (inactive) with EKVX; 27 µM with HCT-15; 29.6 µM (inactive) with HL-60; > 100 µM (inactive) with K562. Moreover, the GI50 with M14 is 56.5 µM (inactive); in the experiment on NCI-H226, 27.9 µM (inactive); in the experiment on RPMI-8226 it was 28.6 µM (inactive); in the experiment on SF-268, > 100 µM (inactive); with SF-539, 86.5 µM (inactive); with SK-MEL-2, 24.5 µM (inactive). For the same molecule, the GI50 in the experiment on SK-OV-3 is 2.56 µM (inactive); with SNB-19 it was 69.2 µM (inactive); in the experiment on SW-620, 78.2 µM (inactive); in the experiment with U-251, 53.5 µM (inactive).

Take `COc1cc2c(cc1O)[C@H](C)C(c1ccc(Cl)cc1)O2` (stereo partly specified): the GI50 was 17.1 µM (inactive) in the experiment on 786-0; 24.9 µM (inactive) with A549; 23 µM (inactive) in the experiment with EKVX; 13.1 µM in the experiment with HCT-15; 14.2 µM (inactive) with HL-60; 18.3 µM (inactive) in the experiment with K562. Moreover, the GI50 in the experiment on M14 is 22.2 µM (inactive); in the experiment on NCI-H226, 24.9 µM (inactive); in the experiment with RPMI-8226, 6.34 µM (inactive); with SF-268, 20.7 µM (inactive); in the experiment on SF-539 it was 57.9 µM (inactive); in the experiment on SK-MEL-2, 21.3 µM (inactive). Further, the GI50 in the experiment on SK-OV-3 is 23.3 µM (inactive); with SNB-19 it was 74.8 µM (inactive); in the experiment on SW-620, 17.4 µM (inactive); in the experiment on U-251, 19.1 µM (inactive).
